Measured values as given in the supplement of paper PMC4862054.

Experiments:
Conditions in all cases: 72 h
[1] = tested on: BT-549
Method in brief: (§1)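 The plates used were 384-well plates holding compound at 5 concentrations in 10-fold steps across a compound-specific 10,000-fold range, into which breast cancer cell lines were seeded in 20 µl suspension. Following 72 h incubation, CellTox Green fluorescence was read at 485/520 nm, and CellTiter-Glo luminescence was read after 10 min at room temperature. Normalisation on each plate used 0.1 % DMSO and a positive kill control. Dose-response curves gave the EC50, which was censored at the top concentration.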

[2] = tested on: CAL-120
Method in brief: as §1

[3] = tested on: CAL-148
Method in brief: as §1

[4] = tested on: CAL-85-1
Method in brief: as §1

[5] = tested on: DU-4475
Method in brief: as §1

[6] = tested on: HCC1143
Method in brief: as §1

[7] = tested on: HCC1599
Method in brief: as §1

[8] = tested on: HCC1937
Method in brief: as §1

[9] = tested on: HDQ-P1
Method in brief: as §1

[10] = tested on: Hs578T
Method in brief: as §1

[11] = tested on: MCF-10A
Method in brief: as §1

[12] = tested on: MDA-MB-231
Method in brief: as §1

[13] = tested on: MDA-MB-436
Method in brief: as §1

[14] = tested on: MDA-MB-453
Method in brief: as §1

[15] = tested on: MFM-223
Method in brief: as §1

[16] = tested on: SK-BR-3
Method in brief: as §1

[17] = tested on: CAL-51
Method in brief: (§2)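 Rows with a drug sensitivity score of zero were dropped, and EC50 was taken from the fitted percent-inhibition dose-response curve, censored at the highest concentration. Data were normalised on each plate to vehicle and a positive kill control and checked by Z'-factor. The assay seeded breast cancer cell lines in 20 µl onto 384-well plates pre-loaded with compound in 5 µl medium for 72 h, then added 2.5 µl CellTiter-Blue for 2 h at 37 °C and read fluorescence at 560/590 nm.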

[18] = tested on: CAL-85-1; remark: listed apart in the source
Method in brief: as §2

[19] = tested on: DU-4475; remark: listed apart in the source
Method in brief: as §2

[20] = tested on: HDQ-P1; remark: listed apart in the source
Method in brief: as §2

[21] = tested on: BT-474
Method in brief: as §2

[22] = tested on: BT-549; remark: listed apart in the source
Method in brief: as §2

[23] = tested on: HCC1143; remark: listed apart in the source
Method in brief: as §2

[24] = tested on: HCC1599; remark: listed apart in the source
Method in brief: as §2

[25] = tested on: Hs578T; remark: listed apart in the source
Method in brief: as §2

[26] = tested on: MDA-MB-436; remark: listed apart in the source
Method in brief: as §2

[27] = tested on: MDA-MB-468
Method in brief: as §2

[28] = tested on: MFM-223; remark: listed apart in the source
Method in brief: as §2

[29] = tested on: SK-BR-3; remark: listed apart in the source
Method in brief: as §2

[30] = tested on: BT-474; remark: listed apart in the source
Description: (§3)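 Drug sensitivity and resistance testing (DSRT) of breast cancer cell lines in 384-well plates, 5 concentrations in 10-fold dilutions over a compound-specific 10,000-fold range. After 72 h, cytotoxicity was read by CellTox Green fluorescence and viability by CellTiter-Glo luminescence (multiplexed), normalised to DMSO and benzethonium chloride controls. EC50 is the inflection point of the fitted dose-response curve (bottom asymptote free, so it can be relative for partial curves) and is censored at the highest tested concentration. Rows with DSS 0 (no meaningful response) were excluded.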

[31] = tested on: BT-549; remark: listed apart in the source
Description: as §3

[32] = tested on: CAL-120; remark: listed apart in the source
Description: as §3

[33] = tested on: CAL-148; remark: listed apart in the source
Description: as §3

[34] = tested on: CAL-51; remark: listed apart in the source
Description: as §3

[35] = tested on: CAL-85-1; remark: listed apart in the source
Description: as §3

[36] = tested on: HCC1599; remark: listed apart in the source
Description: as §3

[37] = tested on: Hs578T; remark: listed apart in the source
Description: as §3

[38] = tested on: MCF-10A; remark: listed apart in the source
Description: as §3

[39] = tested on: MDA-MB-231; remark: listed apart in the source
Description: as §3

[40] = tested on: MDA-MB-436; remark: listed apart in the source
Description: as §3

[41] = tested on: MDA-MB-468; remark: listed apart in the source
Description: as §3

[42] = tested on: MFM-223; remark: listed apart in the source
Description: as §3

- EC50, CellTiter-Glo [1]: 26.3 nM
- EC50, CellTiter-Glo [6]: 23.5 nM
- EC50, CellTiter-Glo [7]: 206 nM
- EC50, CellTiter-Glo [8]: 29.5 nM
- EC50, CellTiter-Glo [12]: 119 nM
- EC50, CellTiter-Glo [13]: 42.9 nM
- EC50, CellTiter-Glo [14]: 12.6 nM
- EC50, CellTiter-Glo [16]: 3.1 nM
- EC50, CellTiter-Blue viability [21]: 33.5 nM
- EC50, CellTiter-Blue viability [22]: 37.8 nM
- EC50, CellTiter-Blue viability [23]: 41.8 nM
- EC50, CellTiter-Blue viability [24]: 176 nM
- EC50, CellTiter-Blue viability [26]: 72.8 nM
- EC50, CellTiter-Blue viability [27]: 33.5 nM
- EC50, CellTiter-Blue viability [29]: 30.9 nM
Structure (SMILES): CCC1=C[C@@H]2CN(C1)Cc1c([nH]c3ccccc13)[C@@](C(=O)OC)(c1cc3c(cc1OC)N(C)[C@H]1[C@@](O)(C(=O)OC)[C@H](OC(C)=O)[C@]4(CC)C=CCN5CC[C@]31[C@@H]54)C2 [Vinorelbine]
- EC50, CellTiter-Glo [2]: 24.1 nM
- EC50, CellTiter-Glo [3]: 35.7 nM
- EC50, CellTiter-Glo [4]: 24.5 nM
- EC50, CellTiter-Glo [5]: 1510 nM
- EC50, CellTiter-Glo [9]: 40.6 nM
- EC50, CellTiter-Glo [10]: 69.7 nM
- EC50, CellTiter-Glo [11]: 27.3 nM
- EC50, CellTiter-Glo [15]: 76.8 nM
- EC50, CellTiter-Blue viability [17]: 116 nM
- EC50, CellTiter-Blue viability [18]: 23.1 nM
- EC50, CellTiter-Blue viability [19]: 304 nM
- EC50, CellTiter-Blue viability [20]: 74 nM
- EC50, CellTiter-Blue viability [25]: 39.8 nM
- EC50, CellTiter-Blue viability [28]: 44.4 nM
- EC50, CellTox Green [30]: 85.9 nM
- EC50, CellTox Green [31]: 492 nM
- EC50, CellTox Green [32]: 1500 nM
- EC50, CellTox Green [33]: 42.5 nM
- EC50, CellTox Green [34]: 45.2 nM
- EC50, CellTox Green [35]: 23.2 nM
- EC50, CellTox Green [36]: 356 nM
- EC50, CellTox Green [37]: 95.4 nM
- EC50, CellTox Green [38]: 13.7 nM
- EC50, CellTox Green [39]: 263 nM
- EC50, CellTox Green [40]: 273 nM
- EC50, CellTox Green [41]: 3510 nM
- EC50, CellTox Green [42]: 5.52 nM
